The target of test [1] is T1, YAP-WW1 (first WW domain of human YAP, residues 165–209) (Homo sapiens, UniProt P46937).
T1 construct: residues 165–209 for the first WW domain of human YAP (YAP-WW1); poly-histidine (N, cleaved yes); GST (N, cleaved yes); made in house; host or cells: E. coli BL21 (DE3)
Briefly: Isothermal titration calorimetry of peptide ligands with isolated YAP-WW1. The conditions noted are these: ITC, 25°C; for n (number of binding sites) / Kd: 40 mM sodium phosphate pH 7.0 (10 mM β-mercaptoethanol for LATS2), one set of identical sites model, at least two experiments; for n (number of binding sites): variability about 1%; for Kd: variability about 10%; for -T·ΔSap / ΔGap / ΔHap: pH 7.0, one set of sites model; for ΔHap: variability about 5%. The test is classed as binding. How it is done: (§1) ITC experiments were carried out using a high-precision VP-ITC titration calorimeter (Microcal Inc., Northampton, Massachusetts). The WW domains were extensively dialyzed against 40 mM sodium phosphate buffer, pH 7.0, with the exception of those experiments using the LATS2 ligand, (containing a cysteine residue), for which the dialysis was performed in the presence of 10mM β-mercaptoethanol to reduce intermolecular di-sulphide bonds formed during ligand storage. Protein and peptide solutions, ranging from 20 to 40 μM for the proteins and from 0.8 to 2 mM for the ligands, were properly degassed to avoid bubble formation and equilibrated to 25°C prior to the titration experiment. In all cases, a profile of injection volumes from 3 to 20 μl was used to better define the titration curve. The heat evolved after each peptide injection was obtained from the integral of the calorimetric signal. The heat associated with the binding process was obtained as the difference between the heat of reaction and the corresponding heat of dilution, as obtained from independent titrations of the peptides into the buffer.
(§2) For the individual WW domains and those ligands with similar binding affinities for YAP-WW1 and YAP-WW2 domains (LATS1-a and LATS2), the resulting binding isotherms were analyzed by non-linear least-squares fittings to a model corresponding to a single set of identical sites, according to the equation:
(§3) Q=V0ΔH/2Ka[1+Ka[Lt]+nKa[Mt]+(1+Ka[Lt]+nKa[Mt])^2−4nKa2[Mt][Lt]] (equation 2)
(§4) , where Q is the net heat of binding, n is the number of binding sites, ΔH is the change in the enthalpy due to the binding process, Ka is the association constant, V0 is the active cell volume, and [Mt] and [Lt] are the total concentrations of macromolecule and the ligand, respectively.
(§5) Both models were implemented in Origin 7.0 software (OriginLab Corporation, Northampton, MA). For the least-squares fit using the one set of sites model, the number of binding sites, the association constant, and the binding enthalpy were considered as floating parameters, while in the analysis with the two set of sites model, only the two association constants and the two binding enthalpies were left to float. All experiments were performed at least twice. Typically, the variability of the experimental values was estimated to be about 1% in the number of binding sites, 5% in the binding enthalpy and 10% in the binding affinity.
On the technique in general: Isothermal titration calorimetry measures the heat released or taken up as one component is titrated into another.

Test [2] deals with T2, YAP-WW1-WW2 tandem construct (human YAP residues 165–271) (Homo sapiens, UniProt P46937).
T2 construct: residues 165–271 for tandem construct (YAP-WW1-WW2); poly-histidine (N, cleaved yes); GST (N, cleaved yes); made in house; host or cells: E. coli BL21 (DE3)
T2 sequence (P46937 165-271): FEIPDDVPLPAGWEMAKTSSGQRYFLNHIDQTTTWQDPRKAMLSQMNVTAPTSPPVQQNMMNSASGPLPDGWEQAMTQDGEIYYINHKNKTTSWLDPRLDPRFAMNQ
Nature of the test: Isothermal titration calorimetry of peptide ligands with the YAP-WW1-WW2 tandem. The conditions noted are these: ITC, 25°C; for n (number of binding sites): 40 mM sodium phosphate pH 7.0 (10 mM β-mercaptoethanol for LATS2), binding model for one set of sites. The test is classed as binding.

Test [3] addresses T3, YAP-WW2 (second WW domain of human YAP, residues 228–271) (Homo sapiens, UniProt P46937).
T3 construct: residues 228–271 for the second WW domain (YAP-WW2); poly-histidine (N, cleaved yes); GST (N, cleaved yes); made in house; host or cells: E. coli BL21 (DE3)
Briefly: Isothermal titration calorimetry of peptide ligands with isolated YAP-WW2. The test is classed as binding. The conditions noted are these: ITC, 25°C; for n (number of binding sites) / Kd: 40 mM sodium phosphate pH 7.0 (10 mM β-mercaptoethanol for LATS2), one set of identical sites model, at least two experiments; for n (number of binding sites): variability about 1%; for Kd: variability about 10%, n.b. = no binding detected; for -T·ΔSap / ΔGap / ΔHap: pH 7.0, one set of sites model; for ΔHap: variability about 5%. The procedure: as §1, §2, §3, §4, §5

The test system of a further test is YAP-WW1 domain. Briefly: Phage ELISA of YAP-WW2-selected clones, displacement of p53BP2 from YAP-WW1. The test is classed as binding, human. The conditions noted are these: YAP-WW1 compared with YAP-WW2. The procedure:
The analysis of the binding preferences of the WW domains was performed by phage-display as previously described. Briefly, an N-term library in PIII was generated using a template derived from the pS2202d phagemid, containing the Erbin-PDZ domain kindly provided by Dr. Sachdev Sidhu (University of Toronto). The Erbin-PDZ sequence was removed by the introduction of four stop codons between the secretion signal and the linker required for the correct display of the library variants in the phage. A randomized sequence corresponding to a x5(L/P)PxYx5 peptide library containing the L/PPxY core motif for type 1 WW domains was subsequently introduced into the modified phagemid. The resulting library was then introduced into the SS320 strain by electroporation. The subsequent phage propagation led to 10^11 library diversity, which was isolated at 5 x 10^13 phages/ml in PBS-Tween (0.05%) buffer. The resulting library was then screened against immobilized GST-tagged YAP-WW2 domain (GST-YAP-WW2) in PBS, carrying out seven rounds of an iterative selection process. Single clones were chosen from round 3 to round 7 and tested for specific binding to the GST-YAP-WW2 by phage ELISA in a Tecan Infinite M200 instrument. […] The DNA from phages showing binding in the ELISA assay were used as PCR templates to amplify the peptide-encoding regions, which were then sequenced and analyzed.

Where [4] appears, read: pH 7.0, binding model for one set of sites.
[5] abbreviates: pH 7.0, model of two different sets of sites, n fixed to 1 each, first set of sites (first line).
The mark [6] stands for this setting: pH 7.0, model of two different sets of sites, n fixed to 1 each, second set of sites (second line).
[7] abbreviates: pH 7.0, two sets of sites model, n fixed to 1, first set of sites.
Where [8] appears, read: pH 7.0, two sets of sites model, n fixed to 1, second set of sites.

Where two headings read alike, the source gives them in different places.

T1 sequence (P46937 165-209): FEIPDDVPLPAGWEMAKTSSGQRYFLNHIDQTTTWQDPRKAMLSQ
T3 sequence (P46937 228-271): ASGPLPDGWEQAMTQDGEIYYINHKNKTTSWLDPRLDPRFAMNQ

A word on the Kd: it is the free concentration of one partner at which half of the binding sites on the other are occupied at equilibrium, for simple one-to-one binding. Take `CC(=O)N[C@@H](CC(N)=O)C(=O)N[C@@H](CCCNC(=N)N)C(=O)N[C@@H](CCC(N)=O)C(=O)N1CCC[C@H]1C(=O)N1CCC[C@H]1C(=O)N1CCC[C@H]1C(=O)N1CCC[C@H]1C(=O)N[C@@H](Cc1ccc(O)cc1)C(=O)N1CCC[C@H]1C(=O)N[C@@H](CC(C)C)C(=O)N[C@H](C(=O)N[C@@H](C)C(N)=O)[C@@H](C)O` [LATS1-a]: in test [1], the “n (number of binding sites)” value is recorded as 0.96, binding was characterised by a dissociation constant (Kd) of 21.5 µM, the “-T·ΔSap” value turned out to be 9.63 kcal/mol and the ΔGap was -6.38 kcal/mol. Also, the ΔHap in test [1] is -16 kcal/mol. For the same compound, in test [2], the “n (number of binding sites)” value turned out to be 2.04. Also, in test [2] (setting [4]), the “-T·ΔSap” value turned out to be 11.1 kcal/mol, binding was put at a Kd of 33.4 µM, the ΔGap was -6.12 kcal/mol and the ΔHap was -17.2 kcal/mol. Further, in test [3], the “n (number of binding sites)” value is given as 1.09, the “-T·ΔSap” value turned out to be 12 kcal/mol, the ΔGap was -6.24 kcal/mol and the ΔHap was -18.2 kcal/mol. Besides, in test [3] (read-out: Kd), the Kd was found to be 27 µM.

Turning to `CC(=O)N[C@@H](CCCNC(=N)N)C(=O)N[C@@H](Cc1ccc(O)cc1)C(=O)N[C@@H](CO)C(=O)N1CCC[C@H]1C(=O)N1CCC[C@H]1C(=O)N1CCC[C@H]1C(=O)N1CCC[C@H]1C(=O)N[C@@H](Cc1ccc(O)cc1)C(=O)N[C@@H](CO)C(=O)N[C@@H](CO)C(=O)N[C@@H](Cc1c[nH]cn1)C(=O)N[C@@H](CO)C(N)=O` [PTCH1-a], the “n (number of binding sites)” value in test [1] turned out to be 0.95; in test [3], 0.91. Also, the Kd in test [1] stood at 27.6 µM; in test [2] (setting [5]) it was 24.7 µM; in test [2] (setting [6]), 47.4 µM; in test [3] (read-out: Kd) it was 45.8 µM. Further, the “-T·ΔSap” value came to 9.3 kcal/mol in test [1], 6.33 kcal/mol in test [2] (setting [7]), 12.1 kcal/mol in test [2] (setting [8]) and 9.82 kcal/mol in test [3]. Besides, the ΔGap in test [1] is -6.24 kcal/mol; in test [2] (setting [7]), -6.31 kcal/mol; in test [2] (setting [8]), -5.9 kcal/mol; in test [3] it was -5.93 kcal/mol. For the same compound, the ΔHap is -15.5 kcal/mol in test [1], -12.6 kcal/mol in test [2] (setting [7]), -18 kcal/mol in test [2] (setting [8]) and -15.8 kcal/mol in test [3].

Turning to AGRPPPPPYPGPPL, the “Interaction with the two WW domains of YAP (ELISA binding experiments)” value in the test with YAP-WW1 domain is “seems to interact similarly with the two WW domains of YAP”.

As to Ac-EGLWPPPYRPRR-NH2 [PTCH1-b], in test [1], the “n (number of binding sites)” value amounted to 1.09, the Kd came to 13.2 µM, the “-T·ΔSap” value worked out at 11.3 kcal/mol and the ΔGap was -6.67 kcal/mol. Also, the ΔHap in test [1] was -18 kcal/mol. Also, in test [2] (setting [4]), the “-T·ΔSap” value turned out to be 12.6 kcal/mol, the Kd stood at 16.9 µM, the ΔGap is -6.52 kcal/mol and the ΔHap is -19.2 kcal/mol. In addition, in test [3], the Kd result was “no interaction was detected and n.b”.

Regarding Ac-RRCPPPPYPKHL-NH2 [LATS2], in test [1], the “n (number of binding sites)” value is reported as 1.05, the Kd stood at 7.1 µM, the “-T·ΔSap” value is 11.9 kcal/mol and the ΔHap is -18.8 kcal/mol. In test [2], the “n (number of binding sites)” value turned out to be 2.02. In test [2] (setting [4]), the “-T·ΔSap” value amounted to 9.56 kcal/mol, the dissociation constant (Kd) came out at 9.2 µM, the ΔGap is -6.88 kcal/mol and the ΔHap was -16.4 kcal/mol. Also, in test [3], the “n (number of binding sites)” value amounted to 1.08, the “-T·ΔSap” value stood at 6.86 kcal/mol, the ΔGap is -6.96 kcal/mol and the ΔHap is -13.8 kcal/mol. Moreover, the equilibrium dissociation constant (Kd) in test [3] (read-out: Kd) was 8.2 µM.

As to Ac-YQGPPPPYPKHL-NH2 [LATS1-b], the “n (number of binding sites)” value in test [1] came out at 0.91; in test [3] it was 0.94. For the same compound, the dissociation constant (Kd) in test [1] is 3.7 µM; in test [2] (setting [5]), 4.8 µM; in test [2] (setting [6]) it was 31.9 µM; in test [3] (read-out: Kd), 33.9 µM. Moreover, the “-T·ΔSap” value in test [1] was found to be 9.08 kcal/mol; in test [2] (setting [7]), 9.66 kcal/mol; in test [2] (setting [8]), 6.24 kcal/mol; in test [3], 10.7 kcal/mol. Moreover, the ΔGap in test [1] was -7.41 kcal/mol; in test [2] (setting [7]), -7.27 kcal/mol; in test [2] (setting [8]), -6.14 kcal/mol; in test [3] it was -6.12 kcal/mol. The ΔHap in test [1] is -16.5 kcal/mol; in test [2] (setting [7]), -16.9 kcal/mol; in test [2] (setting [8]), -12.4 kcal/mol; in test [3], -16.8 kcal/mol.

Values taken from paper PMC4301871, “WW Domains of the Yes-Kinase-Associated-Protein (YAP) Transcriptional Regulator Behave as Independent Units with Different Binding Preferences for PPxY Motif-Containing Ligands” (PLoS ONE, 2015).
